Experimental data: publication PMC7156458, “Synthetic biology based construction of biological activity-related library of fungal decalin-containing diterpenoid pyrones” (Nature Communications, 2020)
Several values for one entry are separate records, joined by “and”; a condition that tells them apart may be missing. Identical values can stand only once. Like-named read-outs stand apart in the source and are kept apart here.

Columns and labels:
[1] = cytotoxicity in Drosophila l(2)mbn cells; assay type: cell-based; details: Drosophila, l(2)mbn cells (larval blood cell-derived)
Procedure: (§1) We screened the DDPs on the Drosophila assay system for cytotoxicity, inhibitory activity of innate immune signalling and insecticidal activity. The cytotoxicity of the DDPs was evaluated using two cell lines, embryonic macrophage-derived DL1 cells[58]–[60] and larval blood cell-derived l(2)mbn cells, and their IC50 values are listed in Supplementary Table 23.

[2] = tested on: l(2)mbn cells; experiment: cytotoxicity in Drosophila l(2)mbn cells; assay type: cell-based; details: for Luminescence Raw1: replicate 1; for Luminescence Raw2: replicate 2; for IC50: Drosophila melanogaster, cytotoxicity
Procedure: as §1

[3] = tested on: MCF-7 cells; experiment: cell cytotoxic effects against MCF-7 cells (72 h), A490; assay type: cell-based, human; details: for viability at 0.1 µM / viability at 1 µM / viability at 10 µM: Homo sapiens, MCF7, 72 h, read-out: A490 (control =1) ave; for viability at 0.1 µM / viability at 1 µM / viability at 10 µM / A490 ave: MCF-7, 72 h
[4] = tested on: MAGI cells; experiment: cytotoxicity in the anti-HIV assay (CC50); assay type: cell-based; details: for Cytotoxicity: single determinations
[5] = replicate 1, relative to DMSO 1%, read-out: % viability, viability 1
[6] = replicate 2, relative to DMSO 1%, read-out: % viability, viability 2
[7] = average of two replicates, read-out: IC50 Average
[8] = replicate 1, read-out: IC50 (1)
[9] = replicate 2, read-out: IC50 (2)
[10] = 0.1 µM (DMSO 0.002%), control 1.064
[11] = 1 µM (DMSO 0.02%), control 1.104
[12] = 10 µM (DMSO 0.2%), control 1.049

Structure (SMILES)	viability at 0.04 µM [1, 5] [%]	viability at 0.04 µM [1, 6] [%]	viability at 0.2 µM [1, 5] [%]	viability at 0.2 µM [1, 6] [%]	viability at 1 µM [1, 5] [%]	viability at 1 µM [1, 6] [%]	viability at 4 µM [1, 5] [%]	viability at 4 µM [1, 6] [%]	viability at 10 µM [1, 5] [%]	viability at 10 µM [1, 6] [%]	viability at 20 µM [1, 5] [%]	viability at 20 µM [1, 6] [%]	Luminescence Raw1 ([2]; 0.04 µM)	Luminescence Raw2 ([2]; 0.04 µM)	Luminescence Raw1 ([2]; 0.2 µM)	Luminescence Raw2 ([2]; 0.2 µM)	Luminescence Raw1 ([2]; 1 µM)	Luminescence Raw2 ([2]; 1 µM)	Luminescence Raw1 ([2]; 4 µM)	Luminescence Raw2 ([2]; 4 µM)	also measured
C=C1CC[C@H]2[C@]3(C)C[C@H](C=C(C)C)O[C@H]3CC[C@]2(C)[C@@H]1Cc1c(OC)oc(CO)c(C)c1=O [Compound 18]	116	96.2	131	115	108	131	64.8	91.8	7.4	8.02	9.23	8.3	2968023	2468099	3357960	2956480	2768193	3359403	1663102	2355206	Luminescence Raw1 ([2]; 10 µM): 190041; Luminescence Raw2 ([2]; 10 µM): 205906; Luminescence Raw1 ([2]; 20 µM): 236915; Luminescence Raw2 ([2]; 20 µM): 213117; IC50 [2, 7]: 6 µM; IC50 ([2]; average±SEM, read-out: IC50): 6 ± 1.09 µM; IC50 [2, 8]: 4.92 µM; IC50 [2, 9]: 7.09 µM; cytotoxicity against the bulk of MCF-7 cells [3]: dose-dependent cytotoxicity; viability at 0.1 µM ([3]; 0.1 µM (DMSO 0.002%)): 65.7%; viability at 1 µM ([3]; 1 µM (DMSO 0.02%)): 26.3%; viability at 10 µM ([3]; 10 µM (DMSO 0.2%)): 15%; A490 ave [3, 10]: 0.699; A490 ave [3, 11]: 0.290; A490 ave [3, 12]: 0.158; Cytotoxicity [4]: >10 µM
C=C1CC[C@H]2[C@]3(C)C[C@@H](C=C(C)C)O[C@H]3CC[C@]2(C)[C@@H]1Cc1c(OC)oc(CO)c(C)c1=O [Compound 17]	35.7	83.5	61.4	95.4	76.8	97	31.4	22.2	1.94	1.93	1.88	3.89	2242516	5241058	3856705	5991979	4822512	6091579	1969854	1392467	Luminescence Raw1 ([2]; 10 µM): 122097; Luminescence Raw2 ([2]; 10 µM): 121376; Luminescence Raw1 ([2]; 20 µM): 118130; Luminescence Raw2 ([2]; 20 µM): 243967; IC50 [2, 7]: 1.78 µM; IC50 ([2]; average±SEM, read-out: IC50): 1.78 ± 0.43 µM; IC50 [2, 8]: 1.35 µM; IC50 [2, 9]: 2.22 µM; cytotoxicity against the bulk of MCF-7 cells [3]: dose-dependent cytotoxicity; viability at 0.1 µM ([3]; 0.1 µM (DMSO 0.002%)): 84.7%; viability at 1 µM ([3]; 1 µM (DMSO 0.02%)): 48.1%; viability at 10 µM ([3]; 10 µM (DMSO 0.2%)): 29.4%; A490 ave [3, 10]: 0.901; A490 ave [3, 11]: 0.531; A490 ave [3, 12]: 0.309; Cytotoxicity [4]: >10 µM
C=C1CCC2C(C)(CC(=O)C=C(C)C)C(O)CCC2(C)C1Cc1c(O)c(C)c(C)oc1=O (stereo not shown) [Compound 7]	135	130	129	135	139	132	129	131	121	115	40.7	39.5	3452362	3328631	3304462	3461380	3578980	3388873	3312398	3370476	Luminescence Raw1 ([2]; 10 µM): 3097048; Luminescence Raw2 ([2]; 10 µM): 2956371; Luminescence Raw1 ([2]; 20 µM): 1044161; Luminescence Raw2 ([2]; 20 µM): 1013149; IC50 ([2]; average±SEM, read-out: IC50): > 20 µM; viability at 0.1 µM ([3]; 0.1 µM (DMSO 0.002%)): 81%; viability at 1 µM ([3]; 1 µM (DMSO 0.02%)): 92.4%; viability at 10 µM ([3]; 10 µM (DMSO 0.2%)): 104%; A490 ave [3, 10]: 0.862; A490 ave [3, 11]: 1.021; A490 ave [3, 12]: 1.095; Cytotoxicity [4]: >10 µM
C=C1CC[C@H]2[C@]3(C)C[C@H](C=C(C)C)O[C@H]3CC[C@]2(C)[C@@H]1Cc1c(O)c(C)c(C)oc1=O [Compound 6, subglutinol B]	126	138	128	117	16.5	20.7	8.58	8.06	8.78	7.37	8.3	7.29	3229071	3538217	3288590	2991720	424303	530313	220220	206879	Luminescence Raw1 ([2]; 10 µM): 225268; Luminescence Raw2 ([2]; 10 µM): 189211; Luminescence Raw1 ([2]; 20 µM): 213009; Luminescence Raw2 ([2]; 20 µM): 187048; IC50 [2, 7]: 0.85 µM; IC50 ([2]; average±SEM, read-out: IC50): 0.85 ± 0.01 µM; IC50 [2, 8]: 0.86 µM; IC50 [2, 9]: 0.838 µM; viability at 0.1 µM ([3]; 0.1 µM (DMSO 0.002%)): 55.9%; viability at 1 µM ([3]; 1 µM (DMSO 0.02%)): 109%; viability at 10 µM ([3]; 10 µM (DMSO 0.2%)): 22.4%; A490 ave [3, 10]: 0.595; A490 ave [3, 11]: 1.207; A490 ave [3, 12]: 0.235; Cytotoxicity [4]: >10 µM
C=C1CCC2C3(C)CC(C=C(C)C)OC3CCC2(C)C1Cc1c(OC)oc(C)c(C)c1=O (stereo not shown) [Compound 23]	122	135	126	141	44.7	72.6	8.9	9.14	7.01	6.89	6.91	6.4	3121216	3467512	3228350	3607479	1147296	1863873	228513	234642	Luminescence Raw1 ([2]; 10 µM): 179837; Luminescence Raw2 ([2]; 10 µM): 176952; Luminescence Raw1 ([2]; 20 µM): 177313; Luminescence Raw2 ([2]; 20 µM): 164332; IC50 [2, 7]: 1.58 µM; IC50 ([2]; average±SEM, read-out: IC50): 1.58 ± 0.35 µM; IC50 [2, 8]: 1.23 µM; IC50 [2, 9]: 1.92 µM; cytotoxicity against the bulk of MCF-7 cells [3]: dose-dependent cytotoxicity; viability at 0.1 µM ([3]; 0.1 µM (DMSO 0.002%)): 62.5%; viability at 1 µM ([3]; 1 µM (DMSO 0.02%)): 21.6%; viability at 10 µM ([3]; 10 µM (DMSO 0.2%)): 14.8%; A490 ave [3, 10]: 0.664; A490 ave [3, 11]: 0.239; A490 ave [3, 12]: 0.155; Cytotoxicity Avg. ([4]; average of numeric determinations): 5.617 µM; Cytotoxicity [4]: 5.032 µM and 7.537 µM and 4.281 µM
C=C1CC[C@@H]2[C@](C)(CC[C@H]3O[C@H](C=C(C)C)C[C@@]23C)[C@@H]1Cc1c(O)c(C)c(C)oc1=O [Compound 10, higginsianin A]	113	127	108	125	20.3	41.9	7.39	9.05	6.87	7.85	5.83	6.46	2899849	3256235	2762422	3200684	521407	1075282	189680	232227	Luminescence Raw1 ([2]; 10 µM): 176340; Luminescence Raw2 ([2]; 10 µM): 201579; Luminescence Raw1 ([2]; 20 µM): 149658; Luminescence Raw2 ([2]; 20 µM): 165883; IC50 [2, 7]: 0.63 µM; IC50 ([2]; average±SEM, read-out: IC50): 0.63 ± 0.1 µM; IC50 [2, 8]: 0.529 µM; IC50 [2, 9]: 0.734 µM; viability at 0.1 µM ([3]; 0.1 µM (DMSO 0.002%)): 62.9%; viability at 1 µM ([3]; 1 µM (DMSO 0.02%)): 94.3%; viability at 10 µM ([3]; 10 µM (DMSO 0.2%)): 17.9%; A490 ave [3, 10]: 0.669; A490 ave [3, 11]: 1.042; A490 ave [3, 12]: 0.188; Cytotoxicity [4]: >10 µM
